The values that follow come from patent US20250361217A1, “FATTY ACID COMPOUNDS” (University of Pittsburgh - Of the Commonwealth System of …, priority 2022, published 2025).

Holding throughout (type): in vivo
Assay [1] has as its system HFD model in C57BL/6J mice. As to the kind of experiment: HPLC-MS analysis of plasma cholesterol, cholesterol-ester and triglycerides in HFD mice. The conditions noted are these: 50 mg/kg. The source says:
Male C57BL/6J mice were purchased from Jackson Laboratory (Bar Harbor, ME, USA). Mice were acclimated for a week before being randomized to receive either a low-fat diet (LFD) or a high-fat diet (HFD) purchased from Research Diets (New Brunswick, NJ, USA). Obesity was induced by the HFD (D12492, with 60% of the adjusted calories derived from fat) for 16 weeks beginning at age of 8 weeks. Age-matched controls were maintained on a LFD (D12450J, matching the sucrose level of D12492). While maintaining the diet, mice under HFD were divided into 4 groups (n=8 per group) and were treated every 2 days by oral gavage for 7 weeks with 100 μl of 11D3 (50 mg/kg), 11U3 (50 mg/kg), or 11U3-2M (50 mg/kg) formulated in a solution of 2:1 of polyethylene glycol (Fisher Scientific, PEG400 #p167-1) and saline, containing 1.5% of octanoic acid (TCI, #00027). Control groups received 100 μl of PEG400/saline/octanoic acid as the vehicle (Veh). LFD mice were divided into 2 groups (n=8 per group) and treated with veh or 11D3 (50 mg/kg) to detect any effect of natural FuFA in LFD. Mice were grouped to start at the same weight mean before starting the treatment. During and before gavage treatment, mice were fed ad libitum and given free access to water. Food intake, water consumption, and mouse weight were monitored every week. At 20 weeks (4 weeks of treatment), a glucose tolerance test (GTT) was performed on all cohorts. After 2 weeks of recovery (22 weeks), a whole-body composition was performed using EchoMRI™-100H. At the end of the 23 weeks study, mice were euthanized with isoflurane followed by laparotomy. The blood was collected, and mice were perfused using 0.9% NaCl. Organs were harvested and snap-frozen in liquid nitrogen gas and stored at −80° C. for further analysis. […]
Plasma TG were analyzed by HPLC-HR-MS/MS using a C8 Luna column (2×150 mm, 5 μm, Phenomenex) with a flow rate of […] and mobile phases of acetonitrile/water (9:1, v/v) 0.1% ammonium acetate (solvent A) and isopropanol/acetonitrile 0.1% ammonium acetate (7:3, v/v) (solvent B). […]

A short description of assay [2]: Energy expenditure and respiratory exchange ratio (FIG. 6D). The conditions noted are these: mice after treatment.
Another assay relates to liver of HFD mice. As to the kind of experiment: Untargeted/targeted metabolomic mass spectrometry of liver (sphingolipids, acylcarnitine). As to the method:
Liver powder (50 mg) was resuspended in 500 μL of H2O and extracted using ethyl acetate (1 mL). Phases were separated by centrifugation for 5 min at 1500 g at 4° C. and the organic phase was collected and dried under nitrogen gas. For acetonitrile precipitation, 200 μL of ice-cold ACN was added to liver tissue homogenized in water and vortexed thoroughly. Samples were centrifuged for 5 min at 1500 g at 4° C. and all the phases were removed and dried under nitrogen gas. Dried samples were reconstituted with McOH and transferred to clean mass spectrometry vials for analysis.
Mass spectrometry data was collected using a Q Exactive Orbitrap (ThermoFisher Scientific) to obtain high-resolution accurate mass data in positive and negative ion modes. Two different Chromatography system were used: The organic phase from Bligh and Dyer extraction sample was performed using a 100×2 mm Luna® 5 μm C18(2) column (phenomenex,00D-4252-BO) with a 0-100% gradient of solvent B (90:10 isopropyl alcohol, ACS reagent for HPLC (Honeywell #AH323):ACN, 0.1% formic acid, reagent grade (Sigma #F0507) and solvent A (70:30 Water, Optima™ LC/MS Grade (Fisher #W6500):acetonitrile, 0.1% formic acid) over 20 min, followed by 100% solvent B for 6 min before a return to 0% solvent B for 4 min at a flow rate of 0.650 mL/min. Chromatography for aqueous Bligh and Dyer phase and acetonitrile precipitation extract was performed using the same column with a gradient of 10-100% solvent D (ACN, 0.1% formic acid) and solvent C (water, 0.1% formic acid) over 18 min, followed by 100% solvent D for 6 min before returning to 10% solvent D for 6 min at a flow rate of 0.650 mL/minute. […]
Ceramide and carnitine conjugates were extracted in the presence of ceramide standard (18:1/17:0) (N-heptadecanoyl-D-erythro-sphingosine, Avanti Polar Lipids #860517) using ethyl acetate and quantified using mass spectrometry.
Mass spectrometry data was collected using an API 5000 LC/MS/MS in positive ion mode. […] Quantitation of analyte and internal standard peak areas was determined using the Quantitation Wizard in Sciex's Analyst® Software.

The structures appear in SMILES notation.

For `CCCc1ccc(CCCCCCCCCC(C)(C)C(=O)O)o1` [11U3-2M, 2,2-Dimethyl-11-(5-propylfuran-2-yl)undecanoic acid], in assay [1], the “plasma TC compared to HFD+veh” value is given as “reduction”, the “plasma TG reduced vs HFD+veh” value is on record as 16% and the “plasma total cholesterol-ester (TCE) reduced vs HFD+veh” value was 33%. Moreover, in assay [2], the energy expenditure entry is on record as “no change” and the respiratory exchange ratio result was “no change”. The “liver metabolites changed by HFD (untargeted metabolomics)” value in the assay on liver of HFD mice (50 mg/kg) is “returned the liver to its basal condition”. In the assay with liver of HFD mice (effect relative to that on ceramides), the “liver sphingomyelins SM(18:1/16:0), SM(18:1/20:0), SM(18:1/24:0) vs HFD+veh” value is reported as “analogous”. Besides, in the assay with liver of HFD mice (targeted quantification), the “liver ceramides (e.g. Cer(18:1/16:0), Cer(18:1/20:0), total ceramide) vs HFD+veh” value is on record as “significant reduction”.
